Source: patent US20250332249A1, “CYTOM[…] CELL EPITOPES AND USES THEREOF” (LA JOLLA INSTITUTE FOR IMMUNOLOGY, priority 2021, published 2025)
Where no end group is shown, it is not given here.

Test system: PBMCs from HCMV seropositive subjects
Assay: ex vivo IFN-γ Fluorospot assay
Format: cell-based, human
Conditions: 19 HCMV seropositive subjects, individual peptide 10 ug/ml, 20 hr; for No. of subjects responding: IFN-γ; for Magnitude of response: IFN-γ spots (FIG. 1: SFC/10^6 PBMC; no unit in table)
Experimental: To define the targets of HCMV-specific T cell epitopes recognized in healthy adults, the inventors screened PBMCs of 19 subjects, 10 males and 9 females, recruited from San Diego blood bank (SDBB). The HCMV seropositivity of all the subjects was confirmed by IgG ELISA (FIG. 6A). A total of 2593 HCMV peptides covering a total of 563 ORFs (1) were tested. However, as many of these predicted ORFs overlapped 100% with others, as they were internal to longer ORFs, these 563 contained 359 completely unique ORFs composed of ˜150“canonical” ORFs, and an additional ˜200 identified by ribosomal RNA profiling (1). These peptides corresponded to predicted dominant epitopes, based on a bioinformatic method that predicts promiscuous binding to HLA class II molecules (40). Each of the ORFs above was covered by multiple predicted epitopes (with a minimum of at least 2), with the exception of very small ORFs (less than 15-20 amino acid residues), in which case at least one peptide was synthetized. The 2593 peptides were arranged in 89 pools of 28-30 15-mer peptides. PBMC reactivity of each of the 89 pools was assayed directly ex vivo using an IFN-γ Fluorospot assay.
For the initial CMV ORF screen, the responses of 19 CMV-seropositive subjects were evaluated. PBMCs were stimulated with 89 pools covering 563 ORFs of HCMV. Each pool comprised of 28-30 15-mer peptides overlapping by 10 residues. PBMCs that were found reactive to a pool were further tested against individual peptides contained in the pool using IFN-γ Fluorospot assay.
PBMC were thawed, washed and counted for viability using the trypan blue exclusion method. 200,000 cells were plated in triplicates and stimulated with pools (2 ug/ml) or peptides (10 ug/ml), PHA (10 ug/ml) or medium containing equivalent amount of DMSO in 96-well plates (Immubilion-P, Millipore) previously coated with anti IFN-γ antibody (1-DIK, Mabtech, Stockholm, Sweden). After 20 hr incubation at 37° C., cells were discarded and wells were washed six times with PBS/0.05% Tween 20 using an automated plate washer and further incubated with IFN-γ antibody (7-B6-1-FS-BAM) for 2 hrs at room temperature. After incubation, wells were washed and incubated with fluorophore conjugated anti-BAM-490 antibody for 1 hr at room temperature. Finally, the plates were washed and incubated with fluorescence enhancer for 15 min, blotted dry and fluorescent spots were counted by computer assisted image analysis (IRIS Fluorospot reader, Mabtech, Sweden).
Each pool or peptide was considered positive compared to the background that had equivalent amount of DMSO based on the following criteria: (i) 20 or more spot forming cells (SFC) per 10^6 PBMC after background subtraction, (ii) the stimulation index greater than 2, and (iii) p<0.05 by student's t test or Poisson distribution test

Substance	No. of subjects responding	Magnitude of response
61 (ASKIKMLETRVTLAL) [compound 61]	1	140
63 (AFKLDLLRMIAVSRT) [compound 63]	2	477
64 (MLFFQRYAPAFVTGY) [compound 64]	1	57
65 (DLKYILTRLEYLYKV) [compound 65]	1	30
66 (DPSYVREHGVPIHAD) [compound 66]	1	123
67 (TDLIRFERNIVCTSM) [compound 67]	3	273
68 (EGIMVVYKRNIVAHT) [compound 68]	1	637
69 (HTFKVRVYQKVLTFR) [compound 69]	1	423
70 (YQKVLTFRRSYAYIH) [compound 70]	1	40
71 (RRSYAYIHTTYLLGS) [compound 71]	5	2730
72 (QLMPDDYSNTHSTRY) [compound 72]	5	45517
73 (NLNCMVTITTARSKY) [compound 73]	2	4810
74 (NADKFFIFPNYTIVS) [compound 74]	4	5120
75 (GLVVFWQGIKQKSLV) [compound 75]	1	53
76 (QLQFTYDTLRGYINR) [compound 76]	3	2236
77 (LRGYINRALAQIAEA) [compound 77]	3	30337
78 (KELSKINPSAILSAI) [compound 78]	3	18557
79 (AILSAIYNKPIAARF) [compound 79]	5	11264
80 (ASCVTINQTSVKVLR) [compound 80]	5	8941
81 (YLFKRMIDLSSISTV) [compound 81]	1	67
84 (QILWTDGLARRTRDR) [compound 84]	1	37
85 (RVGITIQQLNVYHQL) [compound 85]	1	963

Substance	No. of subjects responding	Magnitude of response
86 (TMRSVFEMQRIRHGA) [compound 86]	1	67
87 (NIFLVGFYLLVPYLG) [compound 87]	1	1633
88 (SLLILVVLLLIYRCC) [compound 88]	1	23
89 (LSYMKYHHLHGLPVN) [compound 89]	3	879
90 (VELCLGAGAGHVVVV) [compound 90]	1	383
91 (RSSWRASCVEVPKKP) [compound 91]	1	370
92 (MQKYFSLDNFLHDYV) [compound 92]	2	20343
93 (QTIYFLGLTALLLRY) [compound 93]	1	583
94 (SFYLVNAMSRNLFRV) [compound 94]	1	43
95 (TMRKLKRKQALVKEQ) [compound 95]	1	1563
96 (TAVSEFMKNTHVLIR) [compound 96]	1	747
98 (IKMWFLLGAPMIAVL) [compound 98]	3	2867
99 (LFIIAFFSREPTKDL) [compound 99]	1	190
100 (PKSFTLTRIHPEYIV) [compound 100]	2	340
101 (PEYIVQIQNAFETNQ) [compound 101]	4	527
102 (GALTLVIPSWHVFAS) [compound 102]	2	190
103 (CRSATSLVGNTNADV) [compound 103]	1	30
104 (SSCAHTTCRSATSLV) [compound 104]	2	104
105 (SWLGQMLRPVGLCTL) [compound 105]	1	43
114 (GILARNLVPMVATVQ) [compound 114]	11	34633
116 (RVTGLVFSVVFSVSL) [compound 116]	4	6380
117 (LTWCVIADRQPRFSV) [compound 117]	3	240

Substance	No. of subjects responding	Magnitude of response
118 (RPKRRVVAPFRVAAA; ends and bridges not checked) [compound 118]	2	283
119 (APFRVAAAGETPLGR; ends and bridges not checked) [compound 119]	6	1089
131 (PFTVLRLSYAYRIFA; ends and bridges not checked) [compound 131]	1	33
132 (AREFLLSHDAALFRA; ends and bridges not checked) [compound 132]	1	23
133 (MLIQQYVLSQYYIKK; ends and bridges not checked) [compound 133]	1	20
134 (RLGTAATQIQKQTLY; ends and bridges not checked) [compound 134]	1	30
135 (KTQIFNKLFTNRISV; ends and bridges not checked) [compound 135]	1	1587
136 (VRSLAVDAQHAAKRV; ends and bridges not checked) [compound 136]	1	53
137 (LEERDEWVRSLAVDA) [compound 137]	1	47
138 (AAITVVPVITQSRLA) [compound 138]	3	450
139 (PWYPITQARTLELTP) [compound 139]	2	996
140 (MSTKRSTVPWYPITQ) [compound 140]	3	477
141 (LRVTFHRVKPTLQRE) [compound 141]	2	830
142 (SGRVILWTTLRLCIL) [compound 142]	1	20
143 (VVRKYWTFTNPNRIL) [compound 143]	3	16876
144 (TFDVRQFVFDNARLV) [compound 144]	6	13736
145 (VRGGIVENKSVSSVV) [compound 145]	5	2691
146 (GNLQVTYVRHYLKNH) [compound 146]	4	655
147 (AVAFLNYSSSSSAVS) [compound 147]	3	2151
148 (AGLMMMRRMRRAPAE) [compound 148]	1	490
149 (CDLPLVSSRLLPETS) [compound 149]	1	123
